Data taken from publication PMC6000670, “Dihydropyridines Allosterically Modulate Hsp90 Providing a Novel Mechanism for Heat Shock Protein Co-induction and Neuroprotection” (Frontiers in Molecular Biosciences, 2018).
Where two headings read alike, the source gives them in different places.

What was measured:
[1] = molecular target: T1, yeast Hsp90 N-terminal domain (Hsp90^1−220) (Saccharomyces cerevisiae, UniProt P02829); test: ITC binding to yeast Hsp90 N-terminal domain; details: isolated N-terminal domain of yeast Hsp90
T1 construct: Hsp90^1−220 (N-terminal domain); made in house

Hsp90 = test: Refolding of denatured luciferase in rabbit reticulocyte lysate; assay type: biochemical
Method: QuantiLum Luciferase (Promega E170A) was diluted to 100 ug/mL in 25 mM Tricine pH 7.8, containing 10 mM MgCl2, 1 mM DTT, 0.1 mM EDTA, 10% glycerol, and 100 mg/mL BSA (sigma 05470) and denatured at 44°C for 30 min. […] Refolding of luciferase was determined by removing 2 μL aliquots of the rabbit reticulocyte mix at 0, 15, 30 45, 60, 90, and 120 min and adding this to 48 μL of Briglt-Glo^TM reconstituted reagent (Promega, E2610), which contains buffer, substrate and ATP required for luciferase activity, as instructed by the manufacturer. Luminescence was measured in a CLARIOstar^R microplate reader using half area 96 well flat bottom plates.

yeast Hsp90-P661R = yeast Hsp90-P661R (Saccharomyces cerevisiae, UniProt P02829, P661R); test: ITC binding to yeast Hsp90 mutant P661R
[2] = test system: SH-SY5Y human neuroblastoma cell line; parameters: method as in Kasza et al., 2016; details: ref Kasza et al., 2016; cited from earlier work
yeast Hsp90^546−709 = yeast Hsp90^546−709 (Saccharomyces cerevisiae, UniProt P02829); test: ITC binding to yeast Hsp90 546-709 (C-terminal domain)
yeast Hsp90^273−709 = yeast Hsp90^273−709 (Saccharomyces cerevisiae, UniProt P02829); test: ITC binding to yeast Hsp90 273-709 (middle and C-terminal domain); details: for ΔH / ΔS: ITC, Yeast 273–709
Hsp90^1−560 = Hsp90^1−560 (Saccharomyces cerevisiae, UniProt P02829); test: ITC binding to yeast Hsp90 1-560 (N and middle domain); details: Hsp90 1−560, N- and middle-domain of yeast Hsp90
[3] = molecular target: yeast Hsp90–AMPPNP complex (Saccharomyces cerevisiae, UniProt P02829); test: ITC binding to yeast Hsp90-AMPPNP complex
yeast Hsp90 [4] = molecular target: T2, yeast Hsp90 (Saccharomyces cerevisiae, UniProt P02829); test: ITC binding to yeast full-length Hsp90
human Hsp72 = human Hsp72 (Homo sapiens, UniProt P0DMV8); test: ITC binding to human Hsp72; details: 1 mM LA1011 into 60 μM human Hsp72
yeast Hsp90-ADP complex = yeast Hsp90-ADP complex (Saccharomyces cerevisiae, UniProt P02829); test: ITC binding to yeast Hsp90-ADP complex
human Hsp90β = human Hsp90β (Homo sapiens, UniProt P08238); test: ITC binding to human full-length Hsp90β
yeast Hsp90 [5] = molecular target: T2, yeast Hsp90; test: Hsp90 ATPase assay
yeast Hsp90 [6] = molecular target: T2, yeast Hsp90; test: Citrate synthase aggregation assay
human Hsp90α = human Hsp90α (Homo sapiens, UniProt P07900); test: ITC binding to human full-length Hsp90α
[7] = molecular target: Hsp90-AMPPNP-Sba1 complex (Saccharomyces cerevisiae, UniProt P02829); test: ITC binding to Hsp90-AMPPNP-Sba1 complex
[8] = test system: APPxPS1 transgenic mouse model of AD; parameters: method as in Kasza et al., 2016; details: ref Kasza et al., 2016, cited from earlier work
[9] = molecular target: human Hsp90α N-terminal domain (Hsp90^9−236) (Homo sapiens, UniProt P07900); test: ITC binding to human Hsp90α N-terminal domain; details: isolated N-terminal domain of human Hsp90α
yeast Hsp90 [10] = molecular target: T2, yeast Hsp90; parameters: pRSETA was used to express yeast full–length Hsp90; made in house; method as in Prodromou et al., 1999; details: Sti1 to yeast Hsp90 without LA1011; ref Prodromou et al., 1999; cited from earlier work
[11] = 2 μM yeast Hsp90, non-inhibited turnover 1.2 per min

T2 sequence (P02829 whole entry): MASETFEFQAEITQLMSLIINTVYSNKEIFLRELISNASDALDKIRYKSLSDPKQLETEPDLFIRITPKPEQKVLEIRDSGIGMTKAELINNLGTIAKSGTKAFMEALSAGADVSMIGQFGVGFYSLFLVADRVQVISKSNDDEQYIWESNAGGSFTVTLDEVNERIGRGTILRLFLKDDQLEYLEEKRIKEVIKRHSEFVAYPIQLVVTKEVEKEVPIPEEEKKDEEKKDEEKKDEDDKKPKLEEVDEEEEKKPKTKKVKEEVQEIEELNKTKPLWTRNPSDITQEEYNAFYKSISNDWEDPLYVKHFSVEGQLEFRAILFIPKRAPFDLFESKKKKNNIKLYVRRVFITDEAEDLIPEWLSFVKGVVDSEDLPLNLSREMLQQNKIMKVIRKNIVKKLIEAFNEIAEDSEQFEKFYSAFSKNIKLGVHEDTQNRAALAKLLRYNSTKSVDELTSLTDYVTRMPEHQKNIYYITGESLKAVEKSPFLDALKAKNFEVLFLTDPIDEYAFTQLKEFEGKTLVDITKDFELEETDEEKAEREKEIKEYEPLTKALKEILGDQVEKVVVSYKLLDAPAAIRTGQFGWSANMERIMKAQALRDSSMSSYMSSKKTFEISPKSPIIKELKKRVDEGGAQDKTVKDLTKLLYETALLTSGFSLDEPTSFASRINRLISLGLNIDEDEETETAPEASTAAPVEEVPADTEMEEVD
Sequence of yeast Hsp90^273−709 (P02829 273-709): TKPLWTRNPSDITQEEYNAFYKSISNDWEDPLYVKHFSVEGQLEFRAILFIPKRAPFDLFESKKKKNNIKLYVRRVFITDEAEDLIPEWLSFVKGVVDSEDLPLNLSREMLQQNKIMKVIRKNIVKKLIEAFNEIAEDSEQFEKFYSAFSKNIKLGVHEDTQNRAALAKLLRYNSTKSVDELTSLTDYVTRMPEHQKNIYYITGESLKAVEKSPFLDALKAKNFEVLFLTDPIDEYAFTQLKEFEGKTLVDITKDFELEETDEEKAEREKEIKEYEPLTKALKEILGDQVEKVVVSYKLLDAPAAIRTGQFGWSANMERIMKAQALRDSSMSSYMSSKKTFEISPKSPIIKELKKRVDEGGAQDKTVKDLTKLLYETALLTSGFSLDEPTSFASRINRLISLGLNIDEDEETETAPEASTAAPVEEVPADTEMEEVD
Sequence of yeast Hsp90^546−709 (P02829 546-709): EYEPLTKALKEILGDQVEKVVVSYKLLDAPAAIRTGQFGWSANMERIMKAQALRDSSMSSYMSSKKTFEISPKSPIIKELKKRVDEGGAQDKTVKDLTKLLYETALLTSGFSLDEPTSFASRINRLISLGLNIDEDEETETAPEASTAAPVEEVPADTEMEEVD
Sequence of human Hsp90β (P08238 whole entry): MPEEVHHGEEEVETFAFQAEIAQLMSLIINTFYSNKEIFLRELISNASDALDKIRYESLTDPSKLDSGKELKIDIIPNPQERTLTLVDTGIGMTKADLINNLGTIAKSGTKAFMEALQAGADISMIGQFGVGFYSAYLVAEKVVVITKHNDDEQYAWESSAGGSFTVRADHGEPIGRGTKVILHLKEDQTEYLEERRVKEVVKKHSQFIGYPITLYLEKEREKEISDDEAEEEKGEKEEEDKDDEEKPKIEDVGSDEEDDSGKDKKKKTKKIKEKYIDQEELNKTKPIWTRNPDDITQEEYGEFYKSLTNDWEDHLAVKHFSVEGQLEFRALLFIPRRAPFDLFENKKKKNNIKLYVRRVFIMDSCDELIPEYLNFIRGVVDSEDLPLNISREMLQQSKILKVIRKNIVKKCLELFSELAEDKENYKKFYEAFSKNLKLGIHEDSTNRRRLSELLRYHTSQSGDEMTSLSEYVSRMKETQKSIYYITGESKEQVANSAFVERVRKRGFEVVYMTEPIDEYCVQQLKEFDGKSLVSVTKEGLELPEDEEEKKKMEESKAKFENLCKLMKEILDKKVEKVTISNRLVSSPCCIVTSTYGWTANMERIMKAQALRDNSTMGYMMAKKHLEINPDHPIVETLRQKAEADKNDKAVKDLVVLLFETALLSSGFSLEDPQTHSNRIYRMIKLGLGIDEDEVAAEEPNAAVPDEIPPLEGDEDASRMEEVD
Sequence of yeast Hsp90–AMPPNP complex (P02829 whole entry, one chain of several): as the sequence (P02829 whole entry) above
Sequence of Hsp90^1−560 (P02829 1-560): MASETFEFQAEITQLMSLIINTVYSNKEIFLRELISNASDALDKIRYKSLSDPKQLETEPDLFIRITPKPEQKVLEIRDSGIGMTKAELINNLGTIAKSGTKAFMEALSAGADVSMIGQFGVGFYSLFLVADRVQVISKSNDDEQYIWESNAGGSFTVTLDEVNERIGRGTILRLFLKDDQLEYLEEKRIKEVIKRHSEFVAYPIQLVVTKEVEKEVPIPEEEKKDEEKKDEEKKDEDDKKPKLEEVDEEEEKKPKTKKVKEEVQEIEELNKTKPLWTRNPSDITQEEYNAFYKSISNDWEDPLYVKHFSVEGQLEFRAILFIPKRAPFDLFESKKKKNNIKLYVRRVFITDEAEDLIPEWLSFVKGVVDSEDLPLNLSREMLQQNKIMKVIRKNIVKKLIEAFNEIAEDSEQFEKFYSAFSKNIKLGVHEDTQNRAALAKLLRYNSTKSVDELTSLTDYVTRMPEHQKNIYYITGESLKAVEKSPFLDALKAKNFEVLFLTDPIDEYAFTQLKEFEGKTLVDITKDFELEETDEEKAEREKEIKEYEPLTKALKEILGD
Sequence of Hsp90-AMPPNP-Sba1 complex (P02829 whole entry): as the sequence (P02829 whole entry) above
Sequence of Hsp90-AMPPNP-Sba1 complex (P28707 whole entry partner): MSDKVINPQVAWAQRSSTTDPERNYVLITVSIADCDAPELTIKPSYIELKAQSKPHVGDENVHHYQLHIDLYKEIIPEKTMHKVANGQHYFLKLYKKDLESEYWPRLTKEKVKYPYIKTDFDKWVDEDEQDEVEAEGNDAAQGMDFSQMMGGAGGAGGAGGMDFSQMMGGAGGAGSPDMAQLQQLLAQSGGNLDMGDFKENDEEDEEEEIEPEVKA
Sequence of yeast Hsp90-ADP complex (P02829 whole entry, one chain of several): as the sequence (P02829 whole entry) above

## COC(=O)C1=C(CCN(C)C)N(C)C(CCN(C)C)=C(C(=O)OC)C1c1ccc(C(F)(F)F)cc1 [LA1011]
[1]
  binding: failed to bind
Hsp90; 1 mM LA1011, rabbit reticulocyte lysate
  inhibition of luciferase refolding: around 50%
Hsp90; 5 mM LA1011, rabbit reticulocyte lysate
  refolding of luciferase: completely prevented refolding of luciferase
Yeast Hsp90-P661R
  Kd: 80.6 ± 19 µM
[2]
  heat shock protein co-induction: co-inducers of Hsp70 and Hsp27
Yeast Hsp90^546−709
  Kd: 60.6 ± 7.9 µM
Yeast Hsp90^546−709; ITC, Yeast 546–709
  ΔH: -10.89 ± 2.95 kJ/mol
  ΔS: 10.7 cal/mol/Deg
Yeast Hsp90^273−709
  Kd: 9.7 ± 0.7 µM
  ΔH: -21.38 ± 0.782 kJ/mol
  ΔS: 6.07 cal/mol/Deg
Hsp90^1−560
  binding: failed to bind
[3]
  Kd: 66.2 ± 21.4 µM
[3]; in the presence of ATP
  LA1011 required to achieve 88% occupancy: 0.5 mM
Yeast Hsp90 [4]
  Kd: 13.5 ± 0.9 µM
Yeast Hsp90 [4]; ITC, Yeast Hsp90
  N (stoichiometry): 0.53
  ΔH: -20.35 ± 0.812 kJ/mol
  ΔS: 6.24 cal/mol/Deg
Yeast Hsp90 [4]; in the absence of ATP
  LA1011 required to achieve 88% occupancy: 100 µM
Human Hsp72
  binding: did not interact
Yeast Hsp90-ADP complex
  Kd: 66.2 ± 29.7 µM
Human Hsp90β
  Kd: 9.7 ± 0.7 µM
Human Hsp90β; ITC, Hsp90β
  ΔH: -2.74 ± 0.182 kJ/mol
  ΔS: 20.8 cal/mol/Deg
Human Hsp90β; ITC, human Hsp90β
  N (stoichiometry): 0.27
Yeast Hsp90 [5]; [11]
  effect on ATPase activity of Hsp90: activated the ATPase activity
Yeast Hsp90 [5]; 10 μM LA1011
  effect on ATPase activity of Hsp90: marginal effects
Yeast Hsp90 [5]; 240 μM LA1011
  stimulation of the ATPase: 2 fold
Yeast Hsp90 [6]; 0.1–0.2 mM LA1011, 600 nM Hsp90, 45°C
  disruption of Hsp90's ability to protect citrate synthase from aggregation: around 50%
Yeast Hsp90 [6]; calculated as [ligand]/[ligand]+Kd, Kd 13 μM, at 0.1–0.2 mM LA1011
  fractional occupancy: 88–93%
Human Hsp90α
  Kd: 3.8 ± 0.7 µM
Human Hsp90α; ITC, Hsp90α
  ΔH: -3.31 ± 0.338 kJ/mol
  ΔS: 22.2 cal/mol/Deg
Human Hsp90α; ITC, human Hsp90α
  N (stoichiometry): 0.35
[7]
  Kd: 23.1 ± 1.9 µM
[8]; APPxPS1 transgenic mouse model of AD
  neuroprotective effect: could protect neurons in the hippocampus, could decrease Tau-accumulation and was able to preserve dendritic spines
[8]; mouse models
  levels that had an effect in mouse models: 5 to 10 µM
[9]
  binding: failed to bind

## COC(=O)C1=C(C)N(C)C(CCN2CCOCC2)=C(C(=O)OC)C1c1ccc(C(F)(F)F)cc1 (stereo not drawn) [LA1014]
Yeast Hsp90^273−709
  Kd: 20.2 ± 3 µM
  ΔH: -3.646 ± 0.607 kJ/mol
  ΔS: 18.6 cal/mol/Deg
Yeast Hsp90 [5]; [11]
  effect on ATPase activity of Hsp90: activated the ATPase activity

## COC(=O)C1=C(CCN(C)C)N(C)C(CCN(C)C)=C(C(=O)OC)C1c1cc(F)cc(F)c1 [LA1026]
Yeast Hsp90^273−709
  Kd: 48.8 ± 4.7 µM
  ΔH: -5.159 ± 0.879 kJ/mol
  ΔS: 15.7 cal/mol/Deg
Yeast Hsp90 [5]; [11]
  effect on ATPase activity of Hsp90: activated the ATPase activity

## COC1=C2C[C@@H](C)C[C@H](OC)[C@H](O)[C@@H](C)/C=C(\C)[C@H](OC(N)=O)[C@@H](OC)/C=C\C=C(/C)C(=O)NC(=CC1=O)C2=O [geldanamycin, reference compound]
Yeast Hsp90 [5]; [11]
  effect on ATPase activity of Hsp90: inhibition of Hsp90 ATPase activity

## Sti1: yeast co-chaperone of Hsp90
Yeast Hsp90 [10]
  Kd: 0.33 ± 0.03 µM
